Data from the NIST ThermoML archive (doi:10.1016/j.tca.2011.06.003).
± gives the expanded uncertainty stated by the source.

Settings: 298.15 K, 101.33 kPa, Liquid; for viscosity: Capillary tube (Ostwald / Ubbelohde) method; for speed of sound: Sing-around technique in a fixed-path interferometer; for mass density: Vibrating tube method

SMILES	viscosity	speed of sound	mass density
NCCNCCN [di(2-aminoethyl)amine]	5.627 ± 0.033 mPa·s	1670.5 ± 1 m/s	945.548 ± 0.099 kg/m3
CCCCO [butan-1-ol]	2.565 ± 0.016 mPa·s	1241.1 ± 0.8 m/s	805.953 ± 0.14 kg/m3
CC(C)O [propan-2-ol]	2.063 ± 0.013 mPa·s	1140.4 ± 0.8 m/s	781.482 ± 0.15 kg/m3
CC(C)CO [2-methyl-1-propanol]	3.307 ± 0.02 mPa·s	1188.8 ± 0.8 m/s	798.104 ± 0.14 kg/m3
